According to US20250163048A1 (Tango Therapeutics, Inc., priority 2022, published 2025):

What follows are molecules tested on MTAP-deleted cell line (assay: viability assay for the MTAP-deleted cell line). Conditions: Homo sapiens, HAP1, viability assay.
Type: cell-based

Row | Structure (SMILES) | IC50
1 | C[C@@H]1C[C@@H](c2nc3cc([C@H]4CC[C@H](C)CN4C(=O)C(=O)Nc4cncc5cn[nH]c45)ccc3s2)CN(C)C1 (single isomer, unassigned) [Compound 171] | < 100 nM
2 | CC1OCc2c(NC(=O)C(=O)N3C[C@@H](C)CC[C@@H]3c3ccccc3)cnc(N)c21 (single isomer, unassigned) [Compound 204] | > 1000 nM
3 | Nc1ncc(NC(=O)C(=O)N2CCCCC2c2cccc(N3CCCC3)c2)c2[nH]ncc12 (single isomer, unassigned) [Compound 213] | 100 to 1000 nM
4 | C[C@H]1CC[C@H](C2CCCCO2)N(C(=O)C(=O)Nc2cnc(N)c3cn[nH]c23)C1 (single isomer, unassigned) [Compound 232] | < 100 nM
5 | C[C@H]1CC[C@H]([C@@H]2CCOC2)N(C(=O)C(=O)Nc2cnc(N)c3cn[nH]c23)C1 (single isomer, unassigned) [Compound 237] | 100 to 1000 nM
6 | CCN(C)c1cccc(C2CCCCN2C(=O)C(=O)Nc2cnc(N)c3cn[nH]c23)c1 (single isomer, unassigned) [Compound 251] | < 100 nM
7 | CN(C)c1cccc(C2CCCCN2C(=O)C(=O)Nc2cnc(N)c3cn[nH]c23)c1 (single isomer, unassigned) [Compound 256] | 100 to 1000 nM
8 | [2H]c1c([2H])c([2H])c([C@H]2CC[C@H](C)CN2C(=O)C(=O)Nc2cnc(N)c3cn[nH]c23)c([2H])c1[2H] (single isomer, unassigned) [Compound 268] | < 100 nM
9 | [2H]c1c([2H])c([2H])c([C@@H]2CC[C@H](C)CN2C(=O)C(=O)Nc2cnc(N)c3cn[nH]c23)c([2H])c1[2H] (single isomer, unassigned) [Compound 286] | 100 to 1000 nM

Same assay, conditions: viability assay, read-out: Hap1 MTAP deleted viability IC50

Row | Structure (SMILES) | IC50
10 | Nc1ncc(NC(=O)C(=O)N2CCCCC2c2cccc(N3CCCC3)c2)c2[nH]ncc12 (single isomer, unassigned) [Compound 271] | < 100 nM
11 | CN(C)c1cccc(C2CCCCN2C(=O)C(=O)Nc2cnc(N)c3cn[nH]c23)c1 (single isomer, unassigned) [Compound 283] | < 100 nM
12 | CC1OCc2c(NC(=O)C(=O)N3C[C@@H](C)CC[C@@H]3c3ccc4scnc4c3)cnc(N)c21 (single isomer, unassigned) [Compound 287] | < 100 nM

Each molecule was assayed on HAP1 MTAP-intact cell line (assay: SDMA in-cell western assay, HAP1 MTAP-intact). Conditions: Homo sapiens, HAP1, read-out: Hap1 MTAP intact IC50.

Row | Structure (SMILES) | IC50
13 | [2H]c1c([2H])c([2H])c([C@H]2CC[C@H](C)CN2C(=O)C(=O)Nc2cnc(N)c3cn[nH]c23)c([2H])c1[2H] (single isomer, unassigned) [Compound 268] | 5 to 50 nM
14 | [2H]c1c([2H])c([2H])c([C@@H]2CC[C@H](C)CN2C(=O)C(=O)Nc2cnc(N)c3cn[nH]c23)c([2H])c1[2H] (single isomer, unassigned) [Compound 286] | > 50 nM
15 | CC1OCc2c(NC(=O)C(=O)N3C[C@@H](C)CC[C@@H]3c3ccc4scnc4c3)cnc(N)c21 (single isomer, unassigned) [Compound 287] | > 50 nM

Same assay, conditions: Homo sapiens, HAP1, read-out: Hap1 MTAP intact IC50, SDMA in-cell western assay, HAP1 MTAP-intact cell line

Row | Structure (SMILES) | IC50
16 | CC1OCc2c(NC(=O)C(=O)N3C[C@@H](C)CC[C@@H]3c3ccccc3)cnc(N)c21 (single isomer, unassigned) [Compound 204] | > 50 nM
17 | Nc1ncc(NC(=O)C(=O)N2CCCCC2c2cccc(N3CCCC3)c2)c2[nH]ncc12 (single isomer, unassigned) [Compound 213] | > 50 nM
18 | C[C@H]1CC[C@H](C2CCCCO2)N(C(=O)C(=O)Nc2cnc(N)c3cn[nH]c23)C1 (single isomer, unassigned) [Compound 232] | > 50 nM
19 | C[C@H]1CC[C@H]([C@@H]2CCOC2)N(C(=O)C(=O)Nc2cnc(N)c3cn[nH]c23)C1 (single isomer, unassigned) [Compound 237] | > 50 nM
20 | CCN(C)c1cccc(C2CCCCN2C(=O)C(=O)Nc2cnc(N)c3cn[nH]c23)c1 (single isomer, unassigned) [Compound 251] | 5 to 50 nM

Same assay, conditions: Homo sapiens, HAP1, read-out: Hap1 MTAP intact IC50, SDMA in-cell western, HAP1 MTAP-intact cell line

Row | Structure (SMILES) | IC50
21 | C[C@@H]1C[C@@H](c2nc3cc([C@H]4CC[C@H](C)CN4C(=O)C(=O)Nc4cncc5cn[nH]c45)ccc3s2)CN(C)C1 (single isomer, unassigned) [Compound 171] | > 50 nM

Same assay, conditions: read-out: Hap1 MTAP intact IC50; SDMA in-cell western assay, HAP1 MTAP-intact cell line

Row | Structure (SMILES) | IC50
22 | CN(C)c1cccc(C2CCCCN2C(=O)C(=O)Nc2cnc(N)c3cn[nH]c23)c1 (single isomer, unassigned) [Compound 256] | > 50 nM
23 | Nc1ncc(NC(=O)C(=O)N2CCCCC2c2cccc(N3CCCC3)c2)c2[nH]ncc12 (single isomer, unassigned) [Compound 271] | > 50 nM
24 | CN(C)c1cccc(C2CCCCN2C(=O)C(=O)Nc2cnc(N)c3cn[nH]c23)c1 (single isomer, unassigned) [Compound 283] | 5 to 50 nM

These molecules were tested on HAP1 MTAP-deleted cell line (assay: SDMA in-cell western assay, HAP1 MTAP-deleted). Conditions: Homo sapiens, HAP1, read-out: Hap1 MTAP deleted IC50, SDMA in-cell western assay, HAP1 MTAP-deleted cell line.

Row | Structure (SMILES) | IC50
25 | CC1OCc2c(NC(=O)C(=O)N3C[C@@H](C)CC[C@@H]3c3ccccc3)cnc(N)c21 (single isomer, unassigned) [Compound 204] | > 50 nM
26 | Nc1ncc(NC(=O)C(=O)N2CCCCC2c2cccc(N3CCCC3)c2)c2[nH]ncc12 (single isomer, unassigned) [Compound 213] | 5 to 50 nM
27 | C[C@H]1CC[C@H](C2CCCCO2)N(C(=O)C(=O)Nc2cnc(N)c3cn[nH]c23)C1 (single isomer, unassigned) [Compound 232] | < 5 nM
28 | C[C@H]1CC[C@H]([C@@H]2CCOC2)N(C(=O)C(=O)Nc2cnc(N)c3cn[nH]c23)C1 (single isomer, unassigned) [Compound 237] | < 5 nM
29 | CCN(C)c1cccc(C2CCCCN2C(=O)C(=O)Nc2cnc(N)c3cn[nH]c23)c1 (single isomer, unassigned) [Compound 251] | < 5 nM
30 | CN(C)c1cccc(C2CCCCN2C(=O)C(=O)Nc2cnc(N)c3cn[nH]c23)c1 (single isomer, unassigned) [Compound 256] | 5 to 50 nM
31 | [2H]c1c([2H])c([2H])c([C@H]2CC[C@H](C)CN2C(=O)C(=O)Nc2cnc(N)c3cn[nH]c23)c([2H])c1[2H] (single isomer, unassigned) [Compound 268] | < 5 nM
32 | [2H]c1c([2H])c([2H])c([C@@H]2CC[C@H](C)CN2C(=O)C(=O)Nc2cnc(N)c3cn[nH]c23)c([2H])c1[2H] (single isomer, unassigned) [Compound 286] | 5 to 50 nM

Same assay, conditions: Homo sapiens, HAP1, read-out: Hap1 MTAP deleted IC50, SDMA in-cell western, HAP1 MTAP-deleted cell line

Row | Structure (SMILES) | IC50
33 | C[C@@H]1C[C@@H](c2nc3cc([C@H]4CC[C@H](C)CN4C(=O)C(=O)Nc4cncc5cn[nH]c45)ccc3s2)CN(C)C1 (single isomer, unassigned) [Compound 171] | < 5 nM

Same assay, conditions: Homo sapiens, HAP1, read-out: Hap1 MTAP deleted IC90, SDMA in-cell western assay, HAP1 MTAP-deleted cell line

Row | Structure (SMILES) | IC90
34 | CC1OCc2c(NC(=O)C(=O)N3C[C@@H](C)CC[C@@H]3c3ccccc3)cnc(N)c21 (single isomer, unassigned) [Compound 204] | > 125 nM
35 | Nc1ncc(NC(=O)C(=O)N2CCCCC2c2cccc(N3CCCC3)c2)c2[nH]ncc12 (single isomer, unassigned) [Compound 213] | > 125 nM
36 | C[C@H]1CC[C@H](C2CCCCO2)N(C(=O)C(=O)Nc2cnc(N)c3cn[nH]c23)C1 (single isomer, unassigned) [Compound 232] | < 75 nM
37 | C[C@H]1CC[C@H]([C@@H]2CCOC2)N(C(=O)C(=O)Nc2cnc(N)c3cn[nH]c23)C1 (single isomer, unassigned) [Compound 237] | > 125 nM
38 | CCN(C)c1cccc(C2CCCCN2C(=O)C(=O)Nc2cnc(N)c3cn[nH]c23)c1 (single isomer, unassigned) [Compound 251] | < 75 nM
39 | CN(C)c1cccc(C2CCCCN2C(=O)C(=O)Nc2cnc(N)c3cn[nH]c23)c1 (single isomer, unassigned) [Compound 256] | > 125 nM
40 | [2H]c1c([2H])c([2H])c([C@H]2CC[C@H](C)CN2C(=O)C(=O)Nc2cnc(N)c3cn[nH]c23)c([2H])c1[2H] (single isomer, unassigned) [Compound 268] | < 75 nM
41 | [2H]c1c([2H])c([2H])c([C@@H]2CC[C@H](C)CN2C(=O)C(=O)Nc2cnc(N)c3cn[nH]c23)c([2H])c1[2H] (single isomer, unassigned) [Compound 286] | > 125 nM
42 | CC1OCc2c(NC(=O)C(=O)N3C[C@@H](C)CC[C@@H]3c3ccc4scnc4c3)cnc(N)c21 (single isomer, unassigned) [Compound 287] | < 75 nM

Same assay, conditions: Homo sapiens, HAP1, read-out: Hap1 MTAP deleted IC90, SDMA in-cell western, HAP1 MTAP-deleted cell line

Row | Structure (SMILES) | IC90
43 | C[C@@H]1C[C@@H](c2nc3cc([C@H]4CC[C@H](C)CN4C(=O)C(=O)Nc4cncc5cn[nH]c45)ccc3s2)CN(C)C1 (single isomer, unassigned) [Compound 171] | < 75 nM

Same assay, conditions: IC50 ratio between HAP1 MTAP-intact and HAP1 MTAP-deleted cell line, SDMA in-cell western

Row | Structure (SMILES) | Hap1 MTAP intact/deleted ratio
44 | C[C@@H]1C[C@@H](c2nc3cc([C@H]4CC[C@H](C)CN4C(=O)C(=O)Nc4cncc5cn[nH]c45)ccc3s2)CN(C)C1 (single isomer, unassigned) [Compound 171] | B (“B” indicates an IC50 ratio greater than or equal to 15 fold but lower than 30 fold)

Same assay, conditions: IC50 ratio between HAP1 MTAP-intact and HAP1 MTAP-deleted cell line, SDMA in-cell western assay

Row | Structure (SMILES) | Hap1 MTAP intact/deleted ratio
45 | CC1OCc2c(NC(=O)C(=O)N3C[C@@H](C)CC[C@@H]3c3ccccc3)cnc(N)c21 (single isomer, unassigned) [Compound 204] | C (“C” indicates an IC50 ratio of less than 15 fold)
46 | Nc1ncc(NC(=O)C(=O)N2CCCCC2c2cccc(N3CCCC3)c2)c2[nH]ncc12 (single isomer, unassigned) [Compound 213] | A (“A” indicates an IC50 ratio greater than or equal to 30 fold)
47 | C[C@H]1CC[C@H](C2CCCCO2)N(C(=O)C(=O)Nc2cnc(N)c3cn[nH]c23)C1 (single isomer, unassigned) [Compound 232] | A (“A” indicates an IC50 ratio greater than or equal to 30 fold)
48 | C[C@H]1CC[C@H]([C@@H]2CCOC2)N(C(=O)C(=O)Nc2cnc(N)c3cn[nH]c23)C1 (single isomer, unassigned) [Compound 237] | A (“A” indicates an IC50 ratio greater than or equal to 30 fold)
49 | CCN(C)c1cccc(C2CCCCN2C(=O)C(=O)Nc2cnc(N)c3cn[nH]c23)c1 (single isomer, unassigned) [Compound 251] | B (“B” indicates an IC50 ratio greater than or equal to 15 fold but lower than 30 fold)
50 | CN(C)c1cccc(C2CCCCN2C(=O)C(=O)Nc2cnc(N)c3cn[nH]c23)c1 (single isomer, unassigned) [Compound 256] | A (“A” indicates an IC50 ratio greater than or equal to 30 fold)
51 | Nc1ncc(NC(=O)C(=O)N2CCCCC2c2cccc(N3CCCC3)c2)c2[nH]ncc12 (single isomer, unassigned) [Compound 271] | A (“A” indicates an IC50 ratio greater than or equal to 30 fold)
52 | CN(C)c1cccc(C2CCCCN2C(=O)C(=O)Nc2cnc(N)c3cn[nH]c23)c1 (single isomer, unassigned) [Compound 283] | A (“A” indicates an IC50 ratio greater than or equal to 30 fold)
53 | CC1OCc2c(NC(=O)C(=O)N3C[C@@H](C)CC[C@@H]3c3ccc4scnc4c3)cnc(N)c21 (single isomer, unassigned) [Compound 287] | B (“B” indicates an IC50 ratio greater than or equal to 15 fold but lower than 30 fold)

Same assay, conditions: read-out: Hap1 MTAP deleted IC50; SDMA in-cell western assay, HAP1 MTAP-deleted cell line

Row | Structure (SMILES) | IC50
54 | Nc1ncc(NC(=O)C(=O)N2CCCCC2c2cccc(N3CCCC3)c2)c2[nH]ncc12 (single isomer, unassigned) [Compound 271] | < 5 nM
55 | CN(C)c1cccc(C2CCCCN2C(=O)C(=O)Nc2cnc(N)c3cn[nH]c23)c1 (single isomer, unassigned) [Compound 283] | < 5 nM
56 | CC1OCc2c(NC(=O)C(=O)N3C[C@@H](C)CC[C@@H]3c3ccc4scnc4c3)cnc(N)c21 (single isomer, unassigned) [Compound 287] | < 5 nM

Same assay, conditions: read-out: Hap1 MTAP deleted IC90; SDMA in-cell western assay, HAP1 MTAP-deleted cell line

Row | Structure (SMILES) | IC90
57 | Nc1ncc(NC(=O)C(=O)N2CCCCC2c2cccc(N3CCCC3)c2)c2[nH]ncc12 (single isomer, unassigned) [Compound 271] | < 75 nM
58 | CN(C)c1cccc(C2CCCCN2C(=O)C(=O)Nc2cnc(N)c3cn[nH]c23)c1 (single isomer, unassigned) [Compound 283] | < 75 nM
